Source: EP0165151A1, “Peptide derivatives as renin inhibitors, process for their preparation and their therapeutical application” (SANOFI, priority 1984, dated 1985)
Square brackets hold non-standard residues; d marks the D form. Peptide text beside a SMILES is read from it. * marks the point of attachment. Sta = CC(C)C[C@H](N)[C@@H](O)CC(=O)O; Isovaleryl = CC(C)CC(=O)*; Nle = CCCC[C@H](N)C(=O)O

Assay: Solubility in water
Format: physicochemical
Conditions: pH : 7,4
Excerpt: Dans les mêmes conditions les composés SR 42406 sous forme de chlorhydrate et SR 43054 B possèdent une solubilité dans l'eau de 1 % et 4 % environ.

solubilité dans l'eau (sous forme de chlorhydrate)	solubilité dans l'eau	SMILES
~1%	–	CCCC[C@H](NC(=O)[C@H](Cc1ccccc1)NC(=O)CC(C)C)C(=O)N[C@@H](CC(C)C)[C@@H](O)CC(=O)N[C@@H](C)C(=O)N[C@@H](CC(C)C)[C@@H](O)CC(=O)N[C@@H](CCCNC(=N)N)C(=O)OC [SR 42406, iVa - Phe - Nle - Sta - Ala - Sta - Arg - OMe] (Isovaleryl-F[Nle][Sta]A[Sta]R-OMe)
–	~4%	CCCC[C@H](NC(=O)[C@H](Cc1ccccc1)NC(=O)CC(C)C)C(=O)N[C@@H](CC(C)C)[C@@H](O)CC(=O)N[C@@H](C)C(=O)N[C@@H](CC(C)C)[C@@H](O)CC(=O)N[C@@H](CC(=O)O)C(=O)O [SR 43504 B, iVa-Phe-Nle-Sta-Ala-Sta-Asp-OH, Disel de trishydroxyméthyl-aminométhane] (Isovaleryl-F[Nle][Sta]A[Sta]D-OH)
–	soluble dans l'eau à environ %	CCCC[C@H](NC(=O)[C@H](Cc1ccccc1)NC(=O)CC(C)C)C(=O)N[C@@H](CC(C)C)[C@@H](O)CC(=O)N[C@@H](C)C(=O)N[C@@H](CC(C)C)[C@@H](O)CC(=O)N[C@@H](CCCCN)C(=O)O [SR 42 654, iVa - Phe - Nle - Sta - Ala - Sta - Lys - OH] (Isovaleryl-F[Nle][Sta]A[Sta]K-OH)
